In article PMC4432589, “Structural basis for dynamic mechanism of nitrate/nitrite antiport by NarK” (Nature Communications, 2015):

Legend:
NarK [1] = biological target: T1, NarK (Escherichia coli, UniProt P10903); experiment: X-ray crystal structure (LCP, SIRAS and molecular replacement); details: occluded state (2.4 Å, pH 5.8, 100 mM NH4NO3) and inward-open state (2.4 Å, pH 6.0); central substrate-binding site
T1 construct: full-length gene in pET-modified vector; GFP-His8 tag cleaved by TEV protease; expressed in E. coli C41(DE3) delta-acrB; DDM/CHS purified; LCP crystals or soybean lipid proteoliposomes
T1 sequence (P10903 1-463): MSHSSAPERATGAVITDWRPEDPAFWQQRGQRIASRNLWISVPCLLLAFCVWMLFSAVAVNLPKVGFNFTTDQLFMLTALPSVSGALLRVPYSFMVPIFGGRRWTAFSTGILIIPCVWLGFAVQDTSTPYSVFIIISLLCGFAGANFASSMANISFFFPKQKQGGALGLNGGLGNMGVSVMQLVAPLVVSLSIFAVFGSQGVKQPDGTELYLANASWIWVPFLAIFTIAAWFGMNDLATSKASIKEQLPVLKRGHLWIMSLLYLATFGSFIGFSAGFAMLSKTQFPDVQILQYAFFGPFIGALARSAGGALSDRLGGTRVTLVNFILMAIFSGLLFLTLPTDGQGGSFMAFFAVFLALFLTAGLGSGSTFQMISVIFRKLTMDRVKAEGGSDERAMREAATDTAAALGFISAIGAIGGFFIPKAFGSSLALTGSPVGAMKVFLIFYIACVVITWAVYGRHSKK

NarK [2] = biological target: T1, NarK; experiment: nitrite uptake into NarK proteoliposomes, DAF-FM fluorescence; assay type: biochemical; details: 50 mM NaNO2 outside, 50 mM NaNO3 inside as counter-anion; pH 7.0; membrane potential; 37 °C

Row | Structure (SMILES) | X-ray crystal structure (LCP, SIRAS and molecular replacement) (NarK [1]) | nitrite uptake into NarK proteoliposomes, DAF-FM fluorescence (NarK [2])
1 | O=[N+]([O-])O [nitrate] | 4U4T (nitrate-bound inward-open state) and 4U4W (nitrate-bound occluded state) | –
2 | O=NO [nitrite] | – | We observed the uptake of nitrite when nitrate was present inside the liposomes
